Reference: patent US11413278B2, “Compounds and methods for promoting stress resistance” (priority 2015, dated 2022)
“Also recorded” adds a separate entry of the source. Read-outs that look alike come from different tables or passages of the source.

What was measured:
WI-38 cells [1] = experiment: CdCl2 (cadmium) resistance assay; format: cell-based, human; details: YES/NO; for Assay 2: Cadmium-resistant: * indicates partial
Procedure: (§1) For many stress conditions tested previously, one significant correlation to longevity is the cellular resistance to H2O2 or CdCl2. Applicants then tested these small molecules, at five different final concentrations (0.25 μM to 20 μM), for cadmium and MMS resistance in WI-38 cells.
(§2) The setups on 384-well plates and incubation times were the same as for H2O2 until the time of incubation with the stressors, which was 12 hours for both cadmium and MMS assays. Applicants tested several conditions, including conditions used to assay fibroblasts from long-lived animals (Salmon et al., 2005). These conditions produced better results with the positive controls (KEAP1 and AKT1 siRNAs) in the MMS assay. Thus, for MMS, the cells were shifted from growth media—OptiMEM+10% FBS, to DMEM (Gibco)+2% BSA (no serum) just before adding small molecules, which occurred 24 hours before MMS addition.
(§3) Isolated small molecules were tested for MMS and cadmium resistance twice in two independent assays. Each small molecule was analyzed at five different concentrations (0.25 μM to 20 μM final concentration), with technical triplicates for each dose. Data were analyzed using a global variance t-test.

C. elegans = C. elegans lifespan assays (liquid and plate); format: in vivo, Caenorhabditis elegans; details: for ILS at 66 µM: Caenorhabditis elegans
WI-38 cells [2] = details: for Assay 1: H2O2-resistant: YES/NO, if NO, possibly due to repeated freezing/thawing of stocks; for EC50: read-out: Est. ED50, dose response 0.6-20 μM, H2O2-resistance
human PARP1 = target: T1, human PARP1 (Homo sapiens, UniProt P09874); experiment: PARP inhibitor assay (HT Fluorescent Homogeneous PARP Inhibition Assay Kit); format: biochemical; details: 10 μM, in vitro
T1 construct: purchased Trevigen
Procedure: (§4) The assay was performed with the HT Fluorescent Homogeneous PARP Inhibition Assay Kit (Trevigen), following manufacturer's instructions. Briefly, nicotinamide adenine dinucleotide, human PARP1 and activated-DNA solution was added onto a 96-well plate. 54 repurchased small molecules, at 10 μM final concentration, were introduced onto the 96-well assay plate and incubated in a humid chamber at room temperature for 30 min in dark. Cycling mixture, with resazurin and cycling enzyme diaphorase, was then added and incubated further for 1 hr in dark. Reaction was terminated by adding the stopping buffer.
as §4, with “(Trevegen),” for “(Trevigen),”, “stopped” for “terminated”

[3] = system: human dermal fibroblast (HDF) primary cells; experiment: H2O2-resistance in primary human dermal fibroblasts; format: cell-based; details: YES/NO
WI-38 cells [4] = experiment: MMS resistance assay; format: cell-based, human; details: YES/NO; for Assay 3: MMS-resistant: * indicates partial; for Assay 5: Triple resistant: H2O2, cadmium and MMS
Procedure: as §1, §2, §3

NRF2 = experiment: qPCR analysis of NRF2-regulated genes; format: cell-based, human; details: Homo sapiens, 24 h, Assay 12(o), at 10 uM, qPCR
Procedure: (§5) For qPCR analysis, WI-38 cells were treated with small molecules (at 10 μM) (biological quadruplicates) for 24 hrs and processed for RNA isolation and reverse transcription (RT) with the Cells-to-Ct Kit (Life Technologies), following manufacturer's instructions. RT products were diluted with H2O and used for qPCR analysis on an ABI 7300 system (Life Technologies) (technical triplicates). Relative expression levels of target genes were normalized to the genes B2M, PPIA and GAPDH. To knock down the expression of FOXO3 or NRF2, WI-38 cells were transfected, using the RNAiMAX reagents (Life Technologies), with siRNA oligos (at 10 nM final concentration, 10 ml culture medium) for FOXO3 (Life Technologies) or NRF2 (Integrated DNA Technologies) on 10-cm petri dishes for 36 hrs, and then detached and aliquoted onto 96-well (for qPCR analysis) or 384-well plates (for H2O2-stress treatment). ˜24 hrs later, small molecules were introduced and incubated with cells for 24 hrs. Cells were then either processed with the Cells-to-Ct Kit to prepare RT products for qPCR analysis or subjected to H2O2 (700 μM) for 3 hrs and assayed for viability. The knockdown efficiency of FOXO3 or NRF2 was checked at 36 hrs post-transfection and at the end as well.
(§6) For qPCR analysis, WI-38 cells were treated with small molecules (at 10 μM) (biological quadruplicate) for 24 hrs and processed for RNA isolation and reverse transcription (RT) with the Cells-to-Ct Kit (Life Technologies), following manufacturer's instructions. RT products were diluted with H2O and used for qPCR analysis on a LightCycler 480 system (Roche) (technical triplicates). Relative expression levels of target genes were normalized to the genes B2M, PPIA and GAPDH. To knock down the expression of FOXO3 or NRF2, WI-38 cells were transfected with siRNA oligos (at 10 nM final concentration) for FOXO3 (Life Technologies) or NRF2 on 10-cm petri dish for 36 hrs, and then detached and aliquoted onto 96-well plates. ˜24 hrs later, small molecules were introduced and incubated with cells for 24 hrs. Cells were then processed with the Cells-to-Ct Kit to prepare RT products for qPCR analysis. The knockdown efficiency of FOXO3 or NRF2 was checked at 36 hrs post-transfection and at the end as well.
NRF2/SKN-1, the oxidative stress and xenobiotic phase 2 detoxification protein, can extend animal lifespan (Sykiotis and Bohmann, 2008; Tullet et al., 2008). Applicants analyzed these small molecules for their ability to increase the expression of NRF2-regulated genes, including HMOX1 (heme oxygenase (decycling) 1; anti-oxidant), NQO1 (NAD(P)H dehydrogenase, quinone 1; phase 2 detoxification enzyme), GCLC (glutamate-cysteine ligase, catalytic) and GSTM1 (glutathionine S transferase) (Hur and Gray, 2011; Suzuki et al., 2013).

FOXO3 = experiment: qPCR analysis of FOXO3-regulated genes; format: cell-based, human; details: Homo sapiens, 24 h, Assay 10(m), at 10 uM, qPCR
Procedure: as §5, §6
Many perturbations that increase lifespan and stress resistance in animals do so in a FOXO-dependent fashion (Kenyon, 2010c). Humans have several FOXO genes, but FOXO3, which promotes stress resistance in mammalian cell culture (Kops et al., 2002; Nemoto and Finkel, 2002; Tran et al., 2003), is the one that has been linked to exceptional longevity in humans (Anselmi et al., 2009; Flachsbart et al., 2009; Li et al., 2009; Pawlikowska et al., 2009; Soerensen et al., 2010; Willcox et al., 2008). FOXO1, in contrast, appears to be responsible for some symptoms of diabetes in mouse models (Cheng and White, 2011). For this reason, applicants have focused on analyzing potential ability of our small molecules to activate FOXO3. […] Another 4 molecules (Gr-7A, Gr-7C, O12 and O23) could induce robust expression (greater than 1.5-fold) of at least 2 FOXO3 target genes.

[5] = system: PC12 cells expressing poly(Q)103-Htt-EGFP; experiment: Poly(Q) toxicity & viability analysis (cellular model of Huntington's disease); format: cell-based, rat; details: 10 uM; YES/NO
Procedure: Viability assays were performed as described before (Aiken et al., 2004). PC12 cells that stably express the inducible poly(Q)103-Htt-EGFP were grown in culture. […] Cell viability was analyzed 48 hrs later by measuring ATP content with CellTiter-Glo.
Toxic protein aggregation is a key feature of many age-related neurodegenerative diseases, including Alzheimer's and Huntington's disease (Caughey and Lansbury, 2003; Ross and Poirier, 2004). A number of animal models (Phillips et al., 2009) and cell models (Schlachetzki et al., 2013) have been established to study these diseases. For this purpose, PC12 rat pheochromocytoma cells display neuronal features and produce neurotransmitters and have been used extensively to study neuronal phenotypes, including synaptic transmission and neurological diseases. […] In this model, induced expression of poly(Q)103-Htt-EGFP could lead to the formation of aggregates and exert substantial toxicity in cells.

[6] = system: HTB-178 lung tumor cells (EGFR+, PIK3CA+, RB1−, TP53−); experiment: Killing effects on HTB-178 tumor cells; format: cell-based, human; details: Assay 1(y), at 10 uM
[7] = Assay 2(z), 1.0 × 10^9 bacteria/ml, wild type + FuDR (2012 July), read-out: Lifespan assay in liquid
[8] = Assay 3(aa), 2.5 × 10^9 bacteria/ml, wild type + FuDR, read-out: Lifespan assay in liquid
[9] = Assay 4(ab), 2.0 × 10^10 bacteria/ml, CF512 worms, no FuDR, read-out: Lifespan assay on plates
[10] = read-out: Induction of NRF2-regulated genes: HMOX1 normalized fold-change
[11] = read-out: Induction of FOXO3-regulated genes: TXNIP normalized fold-change
[12] = read-out: Induction of NRF2-regulated genes: NQO1 normalized fold-change
[13] = Assay 5(ac), 1.0 × 10^11 bacteria/ml, CF512 worms, no FuDR, read-out: Lifespan assay on plates
[14] = Assay 6(ad), 2.0 × 10^10 bacteria/ml, CF512 worms, no FuDR, read-out: Lifespan assay on plates
[15] = Assay 7(ae), 1.0 × 10^11 bacteria/ml, CF512 worms, no FuDR, read-out: Lifespan assay on plates

T1 sequence (P09874 whole entry): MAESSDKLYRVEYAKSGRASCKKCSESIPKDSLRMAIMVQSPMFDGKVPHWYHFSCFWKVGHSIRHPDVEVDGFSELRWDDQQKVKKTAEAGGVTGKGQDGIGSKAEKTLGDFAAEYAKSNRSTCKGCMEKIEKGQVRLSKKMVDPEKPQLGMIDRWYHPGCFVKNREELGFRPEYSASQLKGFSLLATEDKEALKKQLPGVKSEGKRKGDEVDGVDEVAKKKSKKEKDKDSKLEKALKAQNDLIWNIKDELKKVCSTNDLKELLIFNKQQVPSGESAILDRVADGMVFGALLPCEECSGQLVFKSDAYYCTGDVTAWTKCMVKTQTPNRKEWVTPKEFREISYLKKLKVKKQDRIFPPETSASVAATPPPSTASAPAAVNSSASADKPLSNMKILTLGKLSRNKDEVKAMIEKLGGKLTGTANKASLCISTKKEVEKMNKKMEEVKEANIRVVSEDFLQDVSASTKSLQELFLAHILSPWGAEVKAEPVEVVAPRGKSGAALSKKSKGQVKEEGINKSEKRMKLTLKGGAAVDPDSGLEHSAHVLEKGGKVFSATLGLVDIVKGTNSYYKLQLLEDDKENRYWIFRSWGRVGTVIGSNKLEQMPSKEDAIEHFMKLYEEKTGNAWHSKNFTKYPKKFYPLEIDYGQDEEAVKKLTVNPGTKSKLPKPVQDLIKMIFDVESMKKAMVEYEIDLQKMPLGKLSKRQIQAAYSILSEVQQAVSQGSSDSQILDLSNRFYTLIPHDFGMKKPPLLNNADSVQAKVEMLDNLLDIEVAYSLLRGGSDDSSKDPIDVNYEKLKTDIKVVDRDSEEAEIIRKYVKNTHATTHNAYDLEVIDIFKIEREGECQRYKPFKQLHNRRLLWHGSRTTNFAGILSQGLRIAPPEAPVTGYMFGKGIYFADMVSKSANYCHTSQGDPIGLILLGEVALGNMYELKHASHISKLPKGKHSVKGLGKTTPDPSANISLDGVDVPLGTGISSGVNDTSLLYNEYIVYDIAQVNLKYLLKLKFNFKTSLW

SMILES | Assay 4: H2O2- & Cd-resistant (WI-38 cells [1]) | Assay 2: Cadmium-resistant (WI-38 cells [1]) | ILS at 66 µM (C. elegans; [7]) [%] | ILS at 66 µM (C. elegans; [8]) [%] | ILS at 66 µM (C. elegans; [9]) [%] | Assay 1: H2O2-resistant (WI-38 cells [2]) | EC50 (WI-38 cells [2]) [µM] | Inhibition of PARP1 (human PARP1) | Assay 6: H2O2-resistant, at 10 uM, human dermal fibroblast (HDF) primary cells [3] | Assay 3: MMS-resistant (WI-38 cells [4]) | Assay 5: Triple resistant (WI-38 cells [4]) | ILS at 66 µM (C. elegans; [13]) [%] | ILS at 66 µM (C. elegans; [14]) [%] | ILS at 66 µM (C. elegans; [15]) [%] | other results
CNS(=O)(=O)c1cc(-c2nnc(O)c3ccccc23)ccc1C [Gr-2A] | YES | YES | 22.7 | 10.8 | 11.4 | YES | 3.05 | inhibitors of PARP1; also recorded: PARP inhibitors | YES | YES | YES | – | – | – | –
Oc1nnc(Cc2ccccc2)c2ccccc12 [Gr-2C] | YES | YES | 15.3 | 0.1 | 7.6 | YES | 3.12 | inhibitors of PARP1; also recorded: PARP inhibitors | YES | YES | YES | – | – | – | fold induction at 10 µM (NRF2; [10]): 1.23; fold induction at 10 µM (FOXO3; [11]): 1.2
CN1CCC=C(Cc2nnc(O)c3ccccc23)C1 [Gr-2D] | – | – | – | – | – | – | 3.42 | inhibitors of PARP1 | – | – | – | – | – | – | –
Cc1sc2nc(SCC(=O)N3CCOCC3)nc(O)c2c1C [O3] | YES | YES | 14.1 | 14.8 | 15.9 | YES | 20 | inhibitors of PARP1; also recorded: PARP inhibitors | YES | YES | YES | 12 | 8.7 | 1.4 | fold induction at 10 µM (NRF2; [12]): 1.21
O=C1NC(=O)c2cccc3cccc1c23 [O7] | YES | YES | 19.7 | 26 | 33.7 | YES | 5.5 | confirmed as PARP inhibitors | YES | YES | YES | 10.2 | 5.8 | -10.5 | Lifespan extension of C. elegans (C. elegans; across independent trials): 10%-34%; Trials with lifespan extension (C. elegans; positive of total trials): 4 of 4; Assay 20: Huntington's poly-Q toxicity attenuation [5]: YES
COc1cc(-c2nc(C(N)=O)c3nc(O)n(-c4cccc(C)c4)c3n2)cc(Br)c1O [O9] | YES | YES | 6.6 | 1.3 | -0.3 | YES | 14.2 | – | – | YES | YES | – | – | – | fold induction at 10 µM (NRF2; [10]): 1.97; fold induction at 10 µM (NRF2; [12]): 1.32; Potential killing effects on HTB-178 tumor cells, 1st [6]: YES;; Potential killing effects on HTB-178 tumor cells, 2nd [6]: YES.; fold induction at 10 µM (FOXO3; read-out: Induction of FOXO3-regulated genes: SESN1 normalized fold-change): 1.19; fold induction at 10 µM (FOXO3; read-out: Induction of FOXO3-regulated genes: SOD2 normalized fold-change): 1.15; fold induction at 10 µM (FOXO3; [11]): 1.72
CC(Nc1cc(C)ccn1)=C(C#N)C#N [O16] | – | – | 16.8 | 11.4 | 19.7 | – | 20 | – | YES | – | – | 9.8 | 9.9 | 12.1 | Potential killing effects on HTB-178 tumor cells, 1st [6]: YES;; Potential killing effects on HTB-178 tumor cells, 2nd [6]: YES.
